In US11292821B2, “Peptides and combination of peptides for use in immunotherapy against lung cancer, including NSCLC, SCLC and other cancers” (Immatics Biotechnologies GmbH, priority 2017, dated 2022):

Assays:
HLA-A*02 = HLA-A*02 (Homo sapiens, UniProt P04439, D140Y/D185E/D98H/E176V/E277Q/G131W/G231S/I119V/I121R/I166T/I218V/N151K/N90K/P208A/P217A/Q86G/Q94H/R138H/R169H); test: MHC binding assay (UV-ligand exchange, β2m ELISA)
HLA-B*44 = test: MHC binding assay (UV-ligand exchange, β2m ELISA); parameters: species or system human; settings: UV-ligand exchange, β2m ELISA
CD8+ T cells = test: In vitro T-cell priming assay with aAPCs (in vitro immunogenicity for MHC class I presented peptides); format: cell-based, human; settings: in vitro immunogenicity, HLA B*44

For “118 (ALSSVLHSI; listed as Homo sapiens) [compound 118]”, the “Peptide exchange (peptide exchange yield, MHC class I binding score)” value (“Peptide exchange” for short) (HLA-A*02) was ““++++” (>75% = ++++)”.

With “92 (NLRDLLSEV; listed as Homo sapiens) [compound 92]” the “Peptide exchange” value (HLA-A*02) was ““+++” (>50 = +++)”.

“325 (QEQDVDLVQKY; listed as Homo sapiens) [compound 325]” was tested, and the “Peptide exchange” value (HLA-B*44) was ““++” (>20% = ++)” and the “Wells positive [%]” value (CD8+ T cells) was ““+” (<20% = +)”.

For “337 (TENRYCVQL; listed as Homo sapiens) [compound 337]”, the “Peptide exchange” value (HLA-B*44) was ““++++” (>75% = ++++)” and the “Wells positive [%]” value (CD8+ T cells) was ““++” (20%-49% = ++)”.

With “320 (MEVDPIGHVYIF; listed as Homo sapiens) [compound 320]” the “Peptide exchange” value (HLA-B*44) was ““++++” (>75% = ++++)” and the “Wells positive [%]” value (CD8+ T cells) was ““+” (<20% = +)”.

For “476 (AEEEIMKKI; listed as Homo sapiens) [compound 476]”, the “Peptide exchange” value (HLA-B*44) was ““++” (>20% = ++)” and the “Wells positive [%]” value (CD8+ T cells) was ““+” (<20% = +)”.

“105 (SLLTHIPTA; listed as Homo sapiens) [compound 105]” was tested, and the “Peptide exchange” value (HLA-A*02) was ““++++” (>75% = ++++)”.

In the case of “103 (FLYYPDPVL; listed as Homo sapiens) [compound 103]”, the “Peptide exchange” value (HLA-A*02) is reported as ““++++” (>75% = ++++)”.

“122 (ALLEMFPEITV; listed as Homo sapiens) [compound 122]” was tested, and the “Peptide exchange” value (HLA-A*02) was ““++++” (>75% = ++++)”.

With “120 (ALLANLPAV; listed as Homo sapiens) [compound 120]” the “Peptide exchange” value (HLA-A*02) was ““++++” (>75% = ++++)”.

For “326 (QEMQHFLGL; listed as Homo sapiens) [compound 326]”, the “Peptide exchange” value (HLA-B*44) was ““+++” (>50 =+++)” and the “Wells positive [%]” value (CD8+ T cells) was ““+” (<20% = +)”.

“100 (RQYPTPFQL; listed as Homo sapiens) [compound 100]” was tested, and the “Peptide exchange” value (HLA-A*02) was ““++++” (>75% = ++++)”.

With “330 (KEGDLGGKQW; listed as Homo sapiens) [compound 330]” the “Peptide exchange” value (HLA-B*44) was ““+++” (>50 =+++)” and the “Wells positive [%]” value (CD8+ T cells) was ““+” (<20% = +)”.

With “333 (AETLSTIQI; listed as Homo sapiens) [compound 333]” the “Peptide exchange” value (HLA-B*44) was ““+++” (>50 =+++)” and the “Wells positive [%]” value (CD8+ T cells) was ““+” (<20% = +)”.

For “126 (FLSTVTSV; listed as Homo sapiens) [compound 126]”, the “Peptide exchange” value (HLA-A*02) was ““++++” (>75% = ++++)”.

For “342 (HEFSSPSHL; listed as Homo sapiens) [compound 342]”, the “Peptide exchange” value (HLA-B*44) was ““+++” (>50 =+++)” and the “Wells positive [%]” value (CD8+ T cells) was ““+” (<20% = +)”.

With “119 (RTADITVTV; listed as Homo sapiens) [compound 119]” the “Peptide exchange” value (HLA-A*02) was ““++++” (>75% = ++++)”.

In the case of “99 (FLKEKVPGI; listed as Homo sapiens) [compound 99]”, the “Peptide exchange” value (HLA-A*02) is reported as ““++++” (>75% = ++++)”.

With “114 (ILDERQVLL; listed as Homo sapiens) [compound 114]” the “Peptide exchange” value (HLA-A*02) was ““++++” (>75% = ++++)”.

In the case of “115 (MLLETQDALYV; listed as Homo sapiens) [compound 115]”, the “Peptide exchange” value (HLA-A*02) is reported as ““++++” (>75% = ++++)”.

For “109 (LLLGSIGLLGV; listed as Homo sapiens) [compound 109]”, the “Peptide exchange” value (HLA-A*02) was ““++++” (>75% = ++++)”.

With “116 (VLMEENSKL; listed as Homo sapiens) [compound 116]” the “Peptide exchange” value (HLA-A*02) was ““++++” (>75% = ++++)”.

In the case of “111 (ALCLLLHLL; listed as Homo sapiens) [compound 111]”, the “Peptide exchange” value (HLA-A*02) is reported as ““+” (>10% = +)”.

For “107 (LLQGAIESV; listed as Homo sapiens) [compound 107]”, the “Peptide exchange” value (HLA-A*02) was ““++++” (>75% = ++++)”.

In the case of “322 (KEVDPAGHSY; listed as Homo sapiens) [compound 322]”, the “Peptide exchange” value (HLA-B*44) is reported as ““++” (>20% = ++)” and the “Wells positive [%]” value (CD8+ T cells) is reported as ““++” (20%-49% = ++)”.

In the case of “334 (AEDEPAAAHL; listed as Homo sapiens) [compound 334]”, the “Peptide exchange” value (HLA-B*44) is reported as ““++” (>20% = ++)” and the “Wells positive [%]” value (CD8+ T cells) is reported as ““+” (<20% = +)”.

For “328 (FEYDFLLQRI; listed as Homo sapiens) [compound 328]”, the “Peptide exchange” value (HLA-B*44) was ““++++” (>75% = ++++)” and the “Wells positive [%]” value (CD8+ T cells) was ““+” (<20% = +)”.

In the case of “102 (SLLEQAIAL; listed as Homo sapiens) [compound 102]”, the “Peptide exchange” value (HLA-A*02) is reported as ““++++” (>75% = ++++)”.

In the case of “338 (SEGSEPALLHSW; listed as Homo sapiens) [compound 338]”, the “Peptide exchange” value (HLA-B*44) is reported as ““+++” (>50 =+++)” and the “Wells positive [%]” value (CD8+ T cells) is reported as ““+” (<20% = +)”.

For “121 (ALVDTLTGI; listed as Homo sapiens) [compound 121]”, the “Peptide exchange” value (HLA-A*02) was ““++++” (>75% = ++++)”.

With “391 (SLIDMRGIETV; listed as Homo sapiens) [compound 391]” the “Peptide exchange” value (HLA-A*02) was ““++++” (>75% = ++++)”.

With “91 (FALPGLLHA; listed as Homo sapiens) [compound 91]” the “Peptide exchange” value (HLA-A*02) was ““+++” (>50 = +++)”.

“357 (RELENCFQIQ; listed as Homo sapiens) [compound 357]” was tested, and the “Peptide exchange” value (HLA-B*44) was ““+++” (>50 =+++)”.

In the case of “389 (TLMEQPLTTL; listed as Homo sapiens) [compound 389]”, the “Peptide exchange” value (HLA-A*02) is reported as ““++++” (>75% = ++++)”.

In the case of “351 (EEVNYINTF; listed as Homo sapiens) [compound 351]”, the “Peptide exchange” value (HLA-B*44) is reported as ““+++” (>50 =+++)”.

“368 (GEFPVRVQV; listed as Homo sapiens) [compound 368]” was tested, and the “Peptide exchange” value (HLA-B*44) was ““++” (>20% = ++)”.

With “323 (SEFMQVIF; listed as Homo sapiens) [compound 323]” the “Peptide exchange” value (HLA-B*44) was ““+++” (>50 =+++)” and the “Wells positive [%]” value (CD8+ T cells) was ““+” (<20% = +)”.

For “110 (LLADFQALL; listed as Homo sapiens) [compound 110]”, the “Peptide exchange” value (HLA-A*02) was ““++++” (>75% = ++++)”.

For “353 (GEIIMQNNW; listed as Homo sapiens) [compound 353]”, the “Peptide exchange” value (HLA-B*44) was ““++++” (>75% = ++++)”.

For “324 (TDSIHAWTF; listed as Homo sapiens) [compound 324]”, the “Peptide exchange” value (HLA-B*44) was ““+++” (>50 =+++)”.

“477 (QENSYQSRL; listed as Homo sapiens) [compound 477]” was tested, and the “Peptide exchange” value (HLA-B*44) was ““+++” (>50 =+++)” and the “Wells positive [%]” value (CD8+ T cells) was ““+” (<20% = +)”.

“98 (LQSSGLTLLL; listed as Homo sapiens) [compound 98]” was tested, and the “Peptide exchange” value (HLA-A*02) was ““++++” (>75% = ++++)”.

For “478 (SEIEQEIGSL; listed as Homo sapiens) [compound 478]”, the “Peptide exchange” value (HLA-B*44) was ““+++” (>50 =+++)”.

With “104 (GMLDIFWGV; listed as Homo sapiens) [compound 104]” the “Peptide exchange” value (HLA-A*02) was ““++++” (>75% = ++++)”.

In the case of “347 (ALNPYQYQY; listed as Homo sapiens) [compound 347]”, the “Peptide exchange” value (HLA-B*44) is reported as ““+++” (>50 =+++)”.

In the case of “336 (ASSSGPMRWW; listed as Homo sapiens) [compound 336]”, the “Peptide exchange” value (HLA-B*44) is reported as ““++” (>20% = ++)”.

In the case of “352 (NEVLTYIKF; listed as Homo sapiens) [compound 352]”, the “Peptide exchange” value (HLA-B*44) is reported as ““++++” (>75% = ++++)”.

In the case of “331 (EDAQGHIW; listed as Homo sapiens) [compound 331]”, the “Peptide exchange” value (HLA-B*44) is reported as ““+++” (>50 =+++)” and the “Wells positive [%]” value (CD8+ T cells) is reported as ““++” (20%-49% = ++)”.

“483 (EENDQSTHKW; listed as Homo sapiens) [compound 483]” was tested, and the “Peptide exchange” value (HLA-B*44) was ““+++” (>50 =+++)”.

With “390 (HIMPTVHTV; listed as Homo sapiens) [compound 390]” the “Peptide exchange” value (HLA-A*02) was ““++++” (>75% = ++++)”.

For “329 (NEHPSNNW; listed as Homo sapiens) [compound 329]”, the “Peptide exchange” value (HLA-B*44) was ““+++” (>50 =+++)” and the “Wells positive [%]” value (CD8+ T cells) was ““+” (<20% = +)”.

With “355 (SDMVRFHLF; listed as Homo sapiens) [compound 355]” the “Peptide exchange” value (HLA-B*44) was ““++” (>20% = ++)”.

In the case of “124 (SVASVLLYL; listed as Homo sapiens) [compound 124]”, the “Peptide exchange” value (HLA-A*02) is reported as ““++++” (>75% = ++++)”.

In the case of “113 (AVLTGLVEV; listed as Homo sapiens) [compound 113]”, the “Peptide exchange” value (HLA-A*02) is reported as ““++++” (>75% = ++++)”.

For “388 (FSIPEGALVAV; listed as Homo sapiens) [compound 388]”, the “Peptide exchange” value (HLA-A*02) was ““++++” (>75% = ++++)”.

For “339 (SEPALLHSW; listed as Homo sapiens) [compound 339]”, the “Peptide exchange” value (HLA-B*44) was ““+++” (>50 =+++)” and the “Wells positive [%]” value (CD8+ T cells) was ““++” (20%-49% = ++)”.

In the case of “86 (FVIDGFDEL; listed as Homo sapiens) [compound 86]”, the “Peptide exchange” value (HLA-A*02) is reported as ““++++” (>75% = ++++)”.

“117 (FLDPNARPLV; listed as Homo sapiens) [compound 117]” was tested, and the “Peptide exchange” value (HLA-A*02) was ““++++” (>75% = ++++)”.

With “479 (AEIQPQTQV; listed as Homo sapiens) [compound 479]” the “Peptide exchange” value (HLA-B*44) was ““+++” (>50 =+++)”.

“360 (AEVPTGVII; listed as Homo sapiens) [compound 360]” was tested, and the “Peptide exchange” value (HLA-B*44) was ““++++” (>75% = ++++)”.

With “362 (SEKGVIQVY; listed as Homo sapiens) [compound 362]” the “Peptide exchange” value (HLA-B*44) was ““+++” (>50 =+++)”.

For “345 (IEFIHPQAF; listed as Homo sapiens) [compound 345]”, the “Peptide exchange” value (HLA-B*44) was ““++++” (>75% = ++++)”.
